Test results as given in patent US11225480B2, “Malic enzyme inhibitors” (SUN PHARMA ADVANCED RESEARCH COMPANY LTD, priority 2019, dated 2022).

Legend:
Type in all cases: biochemical
[1] = target: human ME2 enzyme (Homo sapiens, UniProt P23368); test: ME2 inhibition assay (diaphorase/resazurin coupled fluorescence); conditions: 10 μM compound concentration; read-out: Malic Enzyme 2 % inhibition (10 μM)
Method: (§1) ME2 catalyzes the oxidative decarboxylation of malate to pyruvate with conversion of the co-factor β-NAD+ to β-NADH. In the fluorescence assay, a coupled reaction is set up where in an enzyme, Diaphorase, utilizes NADH generated by ME2, to convert the dye resazurin to a fluorescent molecule resorufin. Resorufin has a characteristic fluorescence with excitation/emission at 540/600 nm (SLAS Discov., 2017 April 1:2472555217706649).
The enzyme activity inhibition assay is set up in a 200 μL final reaction volume in a 96-well plate. As per the experimental design, 2 μL of the compounds at 100× the desired concentration (10 μM) in DMSO were added to the respective wells with 178 μL of assay buffer (50 mM Tris-HCl pH 7.5, 10 mM MnCl2, 7 mM L-malate, 50 μM Resazurin and 0.025 mg/ml Diapharose). The 96-well plate was incubated on a plate shaker at room temperature for 15 minutes protected from light. The well contents were gently mixed by adding 10 μL of 60 nM human ME2 enzyme to the wells and the plate was incubated on a shaker at room temperature for 5 minutes protected from light. Suitable ‘enzyme only’ and ‘no enzyme’ controls were included in the experiment. The enzymatic reaction was started by adding 10 μL of 2 mM β-NAD+. The reaction was gently mixed and the plate was initially left on a shaker at room temperature for −7 minutes protected from light. Later, the plate was incubated without shaking at room temperature for 2 hours. At the end of 2 hours, the fluorescence of the wells was measured at excitation 540 nm and emission 600 nm. The % enzyme activity of the compounds is obtained by normalizing the data with enzyme only (100%) and no enzyme controls (0%) using GraphPad Prism software 7.04.

[2] = target: T1, human ME3 enzyme (Homo sapiens, UniProt Q16798); test: ME3 inhibition assay (diaphorase/resazurin coupled fluorescence); conditions: 10 μM compound concentration; read-out: Malic Enzyme 3 % inhibition (10 μM)
T1 sequence (Q16798 1-604): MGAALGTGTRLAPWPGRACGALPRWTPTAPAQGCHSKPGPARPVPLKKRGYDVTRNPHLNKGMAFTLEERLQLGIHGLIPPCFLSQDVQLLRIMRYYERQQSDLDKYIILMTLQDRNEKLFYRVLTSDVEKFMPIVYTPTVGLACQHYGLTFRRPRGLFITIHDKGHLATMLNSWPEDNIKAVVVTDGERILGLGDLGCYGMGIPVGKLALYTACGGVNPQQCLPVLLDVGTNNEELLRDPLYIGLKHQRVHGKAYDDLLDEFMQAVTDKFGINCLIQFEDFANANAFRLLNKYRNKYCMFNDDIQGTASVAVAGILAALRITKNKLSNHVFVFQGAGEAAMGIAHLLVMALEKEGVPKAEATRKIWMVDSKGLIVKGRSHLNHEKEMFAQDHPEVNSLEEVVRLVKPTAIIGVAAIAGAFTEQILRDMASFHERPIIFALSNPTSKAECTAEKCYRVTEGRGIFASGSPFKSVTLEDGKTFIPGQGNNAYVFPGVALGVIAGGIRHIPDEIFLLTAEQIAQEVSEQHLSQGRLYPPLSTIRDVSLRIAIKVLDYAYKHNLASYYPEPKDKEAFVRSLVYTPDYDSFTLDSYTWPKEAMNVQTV
Method: ME3 catalyzes the oxidative decarboxylation of malate to pyruvate with conversion of the co-factor β-NADP+ to NADPH. In the fluorescence assay, a coupled reaction is set up wherein an enzyme, Diaphorase, utilizes NADPH generated by ME3, to convert the dye resazurin to a fluorescent molecule resorufin.
The enzyme activity inhibition assay is set up in a 200 μL final reaction volume in a 96-well plate. As per the experimental design, 2 μL of the test compounds at 100× the desired concentration (10 μM) in DMSO were added to the respective wells with 178 μL of assay buffer (50 mM Tris-HCl pH 7.5, 10 mM MnCl2, 3 mM L-malate, 50 μM Resazurin and 0.025 mg/ml Diapharose). The 96-well plate was incubated on a plate shaker at room temperature for 15 minutes protected from light. The well contents were gently mixed by adding 10 μL of 20 nM human ME3 enzyme to the wells and the plate was incubated on a shaker at room temperature for 5 minutes protected from light. Suitable enzyme only and no enzyme controls were included in the experiment. The enzyme reaction was started by adding 10 μL of 1 mM D-NADP+. The reaction was gently mixed and the plate was initially left on a shaker at room temperature for ˜7 minutes protected from light. Later, the plate was incubated without shaking at room temperature for 3 hours. At the end of 3 hours, the fluorescence of the wells was measured at excitation 540 nm and emission 600 nm.

[3] = target: T2, human ME1 enzyme (Homo sapiens, UniProt P48163); test: ME1 inhibition assay (diaphorase/resazurin coupled fluorescence); conditions: 10 μM compound concentration; read-out: Malic Enzyme 1 % inhibition (10 μM)
T2 sequence (P48163 1-572): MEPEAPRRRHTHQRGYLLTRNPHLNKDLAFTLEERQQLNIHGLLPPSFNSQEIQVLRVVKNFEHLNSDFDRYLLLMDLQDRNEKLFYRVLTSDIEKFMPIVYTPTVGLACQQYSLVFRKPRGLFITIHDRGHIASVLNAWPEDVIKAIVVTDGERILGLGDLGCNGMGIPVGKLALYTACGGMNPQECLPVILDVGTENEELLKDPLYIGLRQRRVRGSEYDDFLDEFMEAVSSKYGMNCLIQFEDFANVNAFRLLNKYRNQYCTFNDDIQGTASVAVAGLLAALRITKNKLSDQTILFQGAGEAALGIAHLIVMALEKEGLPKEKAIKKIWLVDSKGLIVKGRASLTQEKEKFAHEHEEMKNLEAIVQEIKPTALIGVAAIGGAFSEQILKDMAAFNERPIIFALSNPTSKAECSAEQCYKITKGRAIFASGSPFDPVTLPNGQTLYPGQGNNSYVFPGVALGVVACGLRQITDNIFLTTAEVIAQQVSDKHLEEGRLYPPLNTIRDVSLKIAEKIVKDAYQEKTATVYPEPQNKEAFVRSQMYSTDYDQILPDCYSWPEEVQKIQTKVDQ
Method: as §1, with “ME1” for “ME2”, “β-NADP+” for “β-NAD+”, “β-NADPH.” for “β-NADH.”, “NADPH” for “NADH”, “ME1,” for “ME2,”
The enzyme activity inhibition assay is set up in a 200 μL final reaction volume in a 96-well plate. As per the experimental design, 2 μL of the compounds at 100× the desired concentration (10 μM) in DMSO were added to the respective wells with 178 μL of assay buffer (50 mM Tris-HCl pH 7.5, 10 mM MnCl2, 2 mM L-malate, 10 μM Resazurin and 0.01 mg/ml Diapharose). The 96-well plate was incubated on a plate shaker at room temperature for 15 minutes protected from light. The well contents were gently mixed by adding 10 μL of 20 nM human ME1 enzyme to the wells and the plate was incubated on a shaker at room temperature for 5 minutes protected from light. Suitable ‘enzyme only’ and ‘no enzyme’ controls were included in the experiment. The enzymatic reaction was started by adding 10 μL of 0.3 mM D-NADP+. The reaction was gently mixed and the plate was initially left on a shaker at room temperature for −7 minutes protected from light. Later, the plate was incubated without shaking at room temperature for 2 hours. At the end of 2 hours, the fluorescence of the wells was measured at excitation 540 nm and emission 600 nm. The % enzyme activity of the compounds is obtained by normalizing the data with enzyme only (100%) and no enzyme controls (0%) using GraphPad Prism software 7.04.

human ME2 enzyme, sequence (P23368 19-584): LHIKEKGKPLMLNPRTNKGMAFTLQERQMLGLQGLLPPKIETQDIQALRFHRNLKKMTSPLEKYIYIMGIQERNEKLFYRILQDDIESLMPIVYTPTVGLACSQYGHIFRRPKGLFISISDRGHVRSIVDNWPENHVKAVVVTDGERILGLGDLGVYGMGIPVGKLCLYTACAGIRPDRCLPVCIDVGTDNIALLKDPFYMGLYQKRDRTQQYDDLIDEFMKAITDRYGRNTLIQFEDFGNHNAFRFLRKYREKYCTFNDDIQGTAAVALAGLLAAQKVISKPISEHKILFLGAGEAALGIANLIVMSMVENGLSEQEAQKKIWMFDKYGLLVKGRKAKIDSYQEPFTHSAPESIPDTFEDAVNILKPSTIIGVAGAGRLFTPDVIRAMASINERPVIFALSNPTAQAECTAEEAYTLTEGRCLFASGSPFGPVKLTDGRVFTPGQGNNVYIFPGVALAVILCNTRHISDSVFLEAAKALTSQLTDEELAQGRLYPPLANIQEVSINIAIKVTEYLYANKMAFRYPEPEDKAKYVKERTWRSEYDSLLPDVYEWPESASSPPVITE

Compound	inhibition at 10 µM [1]	inhibition at 10 µM [2]	inhibition at 10 µM [3]
O=C([C@@H]1C[C@H]1c1ccccc1)N1CCN(c2ccc(O)cn2)CC1 (stereo in doubt) [I.133, [4-(5-hydroxypyridin-2-yl)-piperazin-1-yl]-((1R,2R)-2-phenylcyclopropyl)-methanone]	> 90%	> 90%	> 90%
O=C(Cc1ccccc1)N1CCN(c2ccc(O)cc2)CC1 [I.1, 1-[4-(4-hydroxyphenyl)piperazin-1-yl]-2-phenylethanone]	> 90%	> 90%	> 90%
O=C(c1c[nH]c2ccccc12)N1CCN(c2ccc(O)cc2)CC1 [I.2]	> 90%	> 90%	> 90%
COCCOc1ccc(CC(=O)N2CCN(c3ccc(O)cc3)CC2)cc1 [I.5, 1-[4-(4-Hydroxy-phenyl)-piperazin-1-yl]-2-[4-(2-methoxy-ethoxy)-phenyl]-ethanone]	> 90%	> 90%	> 90%
O=C(Cc1ccccc1)N1CCN(c2ccc(O)cn2)CC1 [I.6, 1-[4-(5-Hydroxy-pyridin-2-yl)-piperazin-1-yl]-2-phenyl-ethanone]	> 90%	> 90%	> 90%
O=C(c1c2ccccc2nc2ccccc12)N1CCN(c2ccc(O)cc2)CC1 [I.9, Acridin-9-yl-[4-(4-hydroxy-phenyl)-piperazin-1-yl]-methanone]	> 90%	> 90%	> 90%
O=C(Cc1ccccc1)N1CCN(c2ccc(O)cc2F)CC1 [I.11, 1-[4-(2-Fluoro-4-hydroxy-phenyl)-piperazin-1-yl]-2-phenyl-ethanone]	70 to 89%	> 90%	> 90%
O=C(c1c2ccccc2cc2ccccc12)N1CCN(c2ccc(O)cc2)CC1 [I.21, Anthracen-9-yl-[4-(4-hydroxy-phenyl)-piperazin-1-yl]-methanone]	> 90%	> 90%	> 90%
O=C(O)c1cccc(-c2cc(C(=O)N3CCN(c4ccc(O)cc4)CC3)ccn2)c1 [I.39, 3-[4-[4-(4-Hydroxy-phenyl)-piperazine-1-carbonyl]-2-pyridyl]-benzoic acid]	> 90%	> 90%	> 90%
O=C(C=C(c1ccccc1)c1ccccc1)N1CCN(c2ccc(O)cc2)CC1 [I.40, 1-[4-(4-hydroxyphenyl)piperazin-1-yl]-3,3-diphenylprop-2-en-1-one]	> 90%	> 90%	> 90%
O=C(O)c1cccc(-c2cc(C(=O)N3CCN(c4ccc(O)cc4)CC3)cc(N3CCOCC3)n2)c1 [I.41, 3-[4-[4-(4-Hydroxy-phenyl)-piperazine-1-carbonyl]-6-morpholino-2-pyridyl]-benzoic acid]	> 90%	> 90%	> 90%
O=C(O)c1ccc(-c2cc(C(=O)N3CCN(c4ccc(O)cc4)CC3)cc(N3CCOCC3)n2)cc1 [I.42, 4-[4-[4-(4-Hydroxy-phenyl)-piperazine-1-carbonyl]-6-morpholino-2-pyridyl]-benzoic acid]	> 90%	> 90%	> 90%
O=C(c1c[nH]c2ccccc12)N1CCN(c2ccc(O)cn2)CC1 [I.43, [4-(5-Hydroxy-pyridin-2-yl)-piperazin-1-yl]-(1H-indol-3-yl)-methanone]	50 to 69%	> 90%	> 90%
O=C(c1c2ccccc2nc2ccccc12)N1CCN(c2ccc(O)cn2)CC1 [I.44, Acridin-9-yl-[4-(5-hydroxy-pyridin-2-yl)-piperazin-1-yl]-methanone]	50 to 69%	> 90%	> 90%
O=C(CCc1ccccc1)N1CCN(c2ccc(O)cn2)CC1 [I.45, 1-[4-(5-hydroxy-pyridin-2-yl)-piperazin-1-yl]-3-phenyl-propan-1-one]	70 to 89%	> 90%	> 90%
O=C(CCc1cccc2ccccc12)N1CCN(c2ccc(O)cc2)CC1 [I.46, 1-[4-(4-Hydroxy-phenyl)-piperazin-1-yl]-3-naphthalen-1-yl-propan-1-one]	> 90%	> 90%	> 90%
O=C(c1c[nH]c2ccccc2c1=O)N1CCN(c2ccc(O)cc2)CC1 [I.47, 3-[4-(4-Hydroxy-phenyl)-piperazine-1-carbonyl]-1H-quinolin-4-one]	> 90%	> 90%	> 90%
